The text below walks through data of PMC11285368, “Chasing Red Herrings: Palladium Metal Salt Impurities Feigning KRAS Activity in Biochemical Assays” (Journal of Medicinal Chemistry, 2024).

Where two headings read alike, the source gives them in different places.

One experiment deals with T1, KRAS^G12D(GTP)::CRAF (Homo sapiens, UniProt P01116, G12D).
T1 construct: KRAS^G12D 1–169, N-terminal 6His-tag, C-terminal avi-tag (Xtal BioStructures, Inc.); 6His (N); purchased Xtal BioStructures, Inc. (KRAS); Viva Biotech Ltd. (CRAF)
The experiment is described as follows: KRAS^G12D(GTP)::CRAF AlphaScreen. It counts as biochemical. Here is the method:
The proteins have been used at these given final assay concentrations:
Test compounds dissolved in DMSO were dispensed onto assay plates (Proxiplate 384 PLUS, white, PerkinElmer; 6008289) using an Access Labcyte Workstation with the Labcyte Echo 555. For the chosen highest assay concentration of 100 μM, 150 nl of compound solution were transferred from a 10 mM DMSO compound stock solution. A series of 11 5-fold dilutions per compound was transferred to the assay plate, and compound dilutions were tested in duplicates. DMSO was added as backfill to a total volume of 150 nl. The assay was run on a fully automated robotic system in a darkened room below 100 Lux. […] After 60 min incubation time 5 μL of AlphaScreen bead mix in assay buffer were added into columns 1–23. Bead mix consisted of AlphaLISA Glutathione Acceptor Beads (PerkinElmer, cat. no. AL109) and Alpha-Screen Streptavidin Donor Beads (perkinElmer cat. no. 6760002) in assay buffer at a final assay concentration of 10 μg/mL each. Plates were kept at room temperature in a darkened incubator. After an additional 60 min incubation time the signal was measured on a PerkinElmer Envision HTS Multilabel Reader using the AlphaScreen specs from PerkinElmer.
IC50 values were calculated and analyzed with Boehringer Ingelheim’s MEGALAB IC50 application using a 4 parametric logistic model.
(In general: Alpha assays give light when donor and acceptor beads are brought close together.)

For another experiment, the target named is biotinylated GST (Schistosoma japonicum, UniProt P08515). Kind of experiment: Control assay (AlphaScreen Shortcut). Format: biochemical. On the procedure: This assay was developed to identify compounds that interfere with the assay format using AlphaLISA Glutathione Acceptor and AlphaScreen Streptavidin Donor beads. The assay was performed as described above using biotinylated GST as bridging reagent instead of KRAS^G12D and CRAF mix.

Another experiment concerns the target KRAS^G12D(GCP) (Homo sapiens, UniProt P01116, G12D). Kind of experiment: KRAS STD-NMR. It counts as binding. The conditions noted are these: Batch 1; 10 μM KRAS^G12D(GCP), 1000 μM ligand; approximated visually. Here is the method:
Experiments were recorded with a saturation time Tsat of 2 s and a total recycle delay of 3.6 s with the standard Bruker pulse program stddiffgp19.2. The shaped pulse train was made of G4 pulses with a length of 50 ms at a power of 31 μW. Here on resonance saturation was applied at 100 Hz and off resonance at 20000 Hz. No spin locking was applied to reduce the protein background. Here, 256 scans were applied with a time domain of 32 000 and the watergate delay was set to 90 μs to reduce remaining HDO signal intensity. 10 μM KRAS^G12D(GCP) and 1000 μM ligand was added for the STD NMR experiments and the percent enhancements approximated visually since no additional analysis was performed.

The target of a further experiment is KRAS “on” (Homo sapiens, UniProt P01116). The experiment is described as follows: NMR-based fragment screen, KD (NMR). It counts as binding.
[1] abbreviates: Batch 1, read-out: KRAS^G12D(GTP)::CRAF AlphaScreen IC50.
[2] abbreviates: Batch 2 (resynthesized), read-out: KRAS^G12D(GTP)::CRAF AlphaScreen IC50.
Setting [3] is: confirmation screen, read-out: IC50, KRAS^G12D(GTP)::CRAF high-throughput AlphaScreen.
The mark [4] stands for this setting: Control assay IC50, Batch 2 (resynthesized).

Chain of biotinylated GST (P08515 whole entry): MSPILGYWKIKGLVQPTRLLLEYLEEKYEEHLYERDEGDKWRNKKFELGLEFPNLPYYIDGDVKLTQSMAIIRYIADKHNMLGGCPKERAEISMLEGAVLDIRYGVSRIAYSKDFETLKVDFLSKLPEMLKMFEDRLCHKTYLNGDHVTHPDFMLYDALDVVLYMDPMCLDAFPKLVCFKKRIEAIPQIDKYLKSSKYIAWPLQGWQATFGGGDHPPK

A word on the IC50: it is the concentration that inhibits the measured activity by half. Regarding `O=C1NCCc2c1[nH]c1c(-c3ccoc3)cccc21` [Cmpd 3, 8-(Furan-3-yl)-2H,3H,4H,9H-pyrido[3,4-b]indol-1-one], the IC50 stood at 11 ± 1.5 µM at KRAS^G12D(GTP)::CRAF (setting [1]); 51.5 ± 3.5 µM on KRAS^G12D(GTP)::CRAF (setting [2]); 78.3 ± 2.9 µM at KRAS^G12D(GTP)::CRAF (Batch 3 (NP repurified), read-out: KRAS^G12D(GTP)::CRAF AlphaScreen IC50); 8.1 µM on KRAS^G12D(GTP)::CRAF (setting [3]); 34 ± 2.6 µM at biotinylated GST (Control assay IC50, Batch 1); 69.7 ± 6.7 µM at biotinylated GST (setting [4]). The molecule further showed an IC50 against biotinylated GST (Control assay IC50, Batch 3 (NP repurified)) greater than 100 µM. For the same molecule, at KRAS^G12D(GCP), the “KRAS STD-NMR percent enhancement” value came out at 11%.

The term Kd denotes the concentration at which binding is half-saturated. Turning to `c1ccc2c(Cc3nc4ccncc4[nH]3)c[nH]c2c1` [FBS Hit 1], the IC50 on KRAS^G12D(GTP)::CRAF (setting [1]) was greater than 100 µM; at biotinylated GST (Control assay IC50, Batch 1), greater than 100 µM. The Kd at KRAS “on” was 1200 µM.

Regarding `O=C1NCCc2c1[nH]c1c(-c3ccncc3)cccc21` [Cmpd 4, 8-(Pyridin-4-yl)-2H,3H,4H,9H-pyrido[3,4-b]indol-1-one], the 50% inhibitory concentration (IC50) at KRAS^G12D(GTP)::CRAF (setting [1]) is 8.6 ± 0.8 µM; on KRAS^G12D(GTP)::CRAF (setting [2]), 77.3 ± 55.7 µM; on KRAS^G12D(GTP)::CRAF (setting [3]), 6.3 µM; against biotinylated GST (Control assay IC50, Batch 1) it was greater than 100 µM; against biotinylated GST (setting [4]), greater than 100 µM. On KRAS^G12D(GCP), the “KRAS STD-NMR percent enhancement” value is reported as 7%.

For the molecule `Clc1ccc2[nH]c3c(c2c1)CNCC3` [FBS Hit 2], the IC50 at KRAS^G12D(GTP)::CRAF (setting [1]) is greater than 100 µM; against biotinylated GST (Control assay IC50, Batch 1), greater than 100 µM. Besides, the equilibrium dissociation constant (Kd) on KRAS “on” was greater than 2000 µM.
